Like-named read-outs stand apart in the source and are kept apart here.
Legend:
Assay in all cases: KiNativ, MOLM13 live cells
Type in all cases: cell-based
[1] = target: TAK1 (Homo sapiens, UniProt O43318); settings: MOLM-13; 100 nM, 2 hours; Lys2; read-out: Inhibition vs DMSO
Protocol: (§1) Samples were analyzed by KiNativ in situ kinase profiling by ActivX Biosciences.

[2] = target: CDK5 (Homo sapiens, UniProt Q00535); settings: MOLM-13, 2 h, 100 nM
Protocol: as §1

[3] = target: T1, GCK (Homo sapiens, UniProt Q12851); settings: MOLM-13; 100 nM, 2 hours; Lys2; read-out: Inhibition vs DMSO
T1 sequence (Q12851 1-820): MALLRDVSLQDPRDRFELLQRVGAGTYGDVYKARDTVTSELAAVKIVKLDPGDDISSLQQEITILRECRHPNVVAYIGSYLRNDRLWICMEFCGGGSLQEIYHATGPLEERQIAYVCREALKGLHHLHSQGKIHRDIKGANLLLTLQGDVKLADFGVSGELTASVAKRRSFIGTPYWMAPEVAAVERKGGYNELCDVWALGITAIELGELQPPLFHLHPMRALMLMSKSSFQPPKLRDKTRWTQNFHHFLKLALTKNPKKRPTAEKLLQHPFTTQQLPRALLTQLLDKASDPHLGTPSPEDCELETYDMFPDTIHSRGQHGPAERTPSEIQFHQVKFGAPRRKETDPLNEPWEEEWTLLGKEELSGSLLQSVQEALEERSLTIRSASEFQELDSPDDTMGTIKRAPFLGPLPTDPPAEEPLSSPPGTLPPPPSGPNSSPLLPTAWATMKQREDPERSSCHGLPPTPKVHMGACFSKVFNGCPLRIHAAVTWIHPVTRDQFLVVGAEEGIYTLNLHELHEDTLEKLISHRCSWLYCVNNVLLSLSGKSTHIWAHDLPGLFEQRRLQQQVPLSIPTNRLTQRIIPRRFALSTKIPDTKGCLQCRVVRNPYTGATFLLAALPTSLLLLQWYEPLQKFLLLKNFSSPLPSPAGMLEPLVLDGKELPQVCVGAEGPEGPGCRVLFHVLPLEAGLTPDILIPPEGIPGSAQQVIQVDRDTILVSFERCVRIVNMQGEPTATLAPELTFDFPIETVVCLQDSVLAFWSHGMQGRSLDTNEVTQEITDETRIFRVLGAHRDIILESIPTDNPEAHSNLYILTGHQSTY
Protocol: as §1

[4] = target: NEK2 (Homo sapiens, UniProt P51955); settings: MOLM-13; 100 nM, 2 hours; Lys2; read-out: Inhibition vs DMSO
NEK2, sequence (P51955 whole entry): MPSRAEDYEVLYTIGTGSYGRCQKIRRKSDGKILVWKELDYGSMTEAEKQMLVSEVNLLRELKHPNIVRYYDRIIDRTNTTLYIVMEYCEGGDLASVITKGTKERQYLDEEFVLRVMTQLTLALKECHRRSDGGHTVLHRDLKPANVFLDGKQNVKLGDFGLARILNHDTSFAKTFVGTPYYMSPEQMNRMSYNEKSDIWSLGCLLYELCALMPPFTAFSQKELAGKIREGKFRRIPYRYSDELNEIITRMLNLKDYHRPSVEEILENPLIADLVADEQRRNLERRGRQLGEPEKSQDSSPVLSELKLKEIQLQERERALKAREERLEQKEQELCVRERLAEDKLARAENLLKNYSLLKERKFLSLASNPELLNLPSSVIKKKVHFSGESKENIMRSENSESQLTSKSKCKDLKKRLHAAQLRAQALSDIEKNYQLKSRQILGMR
Protocol: as §1

[5] = target: MAP3K1 (Homo sapiens, UniProt Q13233); settings: MOLM-13; 100 nM, 2 hours; Lys2; read-out: Inhibition vs DMSO
Protocol: as §1

[6] = target: p70S6Kb (Homo sapiens, UniProt Q9UBS0); settings: MOLM-13, 2 h, 100 nM
p70S6Kb, sequence (Q9UBS0 whole entry): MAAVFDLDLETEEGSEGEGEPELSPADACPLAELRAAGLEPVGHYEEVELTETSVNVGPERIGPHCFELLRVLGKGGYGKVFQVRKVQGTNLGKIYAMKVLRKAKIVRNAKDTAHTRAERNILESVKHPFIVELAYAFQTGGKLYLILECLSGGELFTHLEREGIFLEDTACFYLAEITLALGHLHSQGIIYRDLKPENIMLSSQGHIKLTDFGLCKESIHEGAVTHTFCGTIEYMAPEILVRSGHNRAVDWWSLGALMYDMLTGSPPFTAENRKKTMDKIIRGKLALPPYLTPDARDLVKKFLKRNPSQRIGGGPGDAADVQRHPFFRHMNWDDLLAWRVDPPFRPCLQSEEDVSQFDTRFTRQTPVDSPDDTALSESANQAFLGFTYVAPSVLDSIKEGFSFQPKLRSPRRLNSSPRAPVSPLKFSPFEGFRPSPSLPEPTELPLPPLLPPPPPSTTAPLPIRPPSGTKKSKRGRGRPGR
Protocol: as §1

[7] = target: NDR2 (Homo sapiens, UniProt Q9Y2H1); settings: MOLM-13; 100 nM, 2 hours; Lys1; read-out: Inhibition vs DMSO
NDR2, sequence (Q9Y2H1 whole entry): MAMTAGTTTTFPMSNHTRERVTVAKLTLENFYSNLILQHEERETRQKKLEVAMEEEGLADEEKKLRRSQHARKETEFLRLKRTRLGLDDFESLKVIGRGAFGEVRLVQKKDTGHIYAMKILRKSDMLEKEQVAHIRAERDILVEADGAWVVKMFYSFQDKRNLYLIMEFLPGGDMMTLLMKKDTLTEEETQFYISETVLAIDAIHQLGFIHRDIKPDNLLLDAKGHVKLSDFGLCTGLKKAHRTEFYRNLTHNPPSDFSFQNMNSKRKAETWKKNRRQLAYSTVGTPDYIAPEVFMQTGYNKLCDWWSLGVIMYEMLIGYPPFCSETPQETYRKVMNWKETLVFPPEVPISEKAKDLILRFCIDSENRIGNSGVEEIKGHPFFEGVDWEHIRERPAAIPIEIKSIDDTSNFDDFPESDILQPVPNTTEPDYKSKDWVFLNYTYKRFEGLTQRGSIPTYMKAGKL
Protocol: as §1

[8] = target: PI4KB (Homo sapiens, UniProt Q9UBF8); settings: MOLM-13, 2 h, 100 nM, ATP, read-out: Inhibition vs DMSO
PI4KB, sequence (Q9UBF8 whole entry): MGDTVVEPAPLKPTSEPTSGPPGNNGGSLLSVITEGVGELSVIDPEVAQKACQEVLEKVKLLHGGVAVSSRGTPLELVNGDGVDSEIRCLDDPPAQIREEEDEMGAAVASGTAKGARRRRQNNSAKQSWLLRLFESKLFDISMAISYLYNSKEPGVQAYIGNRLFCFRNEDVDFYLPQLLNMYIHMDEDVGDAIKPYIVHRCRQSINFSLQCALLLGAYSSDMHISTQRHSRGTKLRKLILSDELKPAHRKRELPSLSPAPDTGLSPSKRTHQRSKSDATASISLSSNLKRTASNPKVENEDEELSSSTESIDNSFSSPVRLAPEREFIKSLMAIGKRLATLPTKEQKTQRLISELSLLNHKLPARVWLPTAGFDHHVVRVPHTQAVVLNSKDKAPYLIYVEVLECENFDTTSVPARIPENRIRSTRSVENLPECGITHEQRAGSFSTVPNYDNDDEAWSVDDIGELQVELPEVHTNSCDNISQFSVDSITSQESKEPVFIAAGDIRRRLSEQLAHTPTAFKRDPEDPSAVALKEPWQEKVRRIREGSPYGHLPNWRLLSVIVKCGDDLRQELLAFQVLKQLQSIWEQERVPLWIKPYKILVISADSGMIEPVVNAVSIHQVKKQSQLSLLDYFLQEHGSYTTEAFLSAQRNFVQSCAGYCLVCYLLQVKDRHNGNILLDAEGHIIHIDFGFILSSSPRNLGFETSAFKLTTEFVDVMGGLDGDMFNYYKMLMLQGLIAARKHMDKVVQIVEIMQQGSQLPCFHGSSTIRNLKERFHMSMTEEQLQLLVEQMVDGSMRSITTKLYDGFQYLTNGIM
Protocol: as §1

[9] = target: HPK1 (Homo sapiens, UniProt Q92918); settings: MOLM-13, 2 h, 100 nM
HPK1, sequence (Q92918 whole entry): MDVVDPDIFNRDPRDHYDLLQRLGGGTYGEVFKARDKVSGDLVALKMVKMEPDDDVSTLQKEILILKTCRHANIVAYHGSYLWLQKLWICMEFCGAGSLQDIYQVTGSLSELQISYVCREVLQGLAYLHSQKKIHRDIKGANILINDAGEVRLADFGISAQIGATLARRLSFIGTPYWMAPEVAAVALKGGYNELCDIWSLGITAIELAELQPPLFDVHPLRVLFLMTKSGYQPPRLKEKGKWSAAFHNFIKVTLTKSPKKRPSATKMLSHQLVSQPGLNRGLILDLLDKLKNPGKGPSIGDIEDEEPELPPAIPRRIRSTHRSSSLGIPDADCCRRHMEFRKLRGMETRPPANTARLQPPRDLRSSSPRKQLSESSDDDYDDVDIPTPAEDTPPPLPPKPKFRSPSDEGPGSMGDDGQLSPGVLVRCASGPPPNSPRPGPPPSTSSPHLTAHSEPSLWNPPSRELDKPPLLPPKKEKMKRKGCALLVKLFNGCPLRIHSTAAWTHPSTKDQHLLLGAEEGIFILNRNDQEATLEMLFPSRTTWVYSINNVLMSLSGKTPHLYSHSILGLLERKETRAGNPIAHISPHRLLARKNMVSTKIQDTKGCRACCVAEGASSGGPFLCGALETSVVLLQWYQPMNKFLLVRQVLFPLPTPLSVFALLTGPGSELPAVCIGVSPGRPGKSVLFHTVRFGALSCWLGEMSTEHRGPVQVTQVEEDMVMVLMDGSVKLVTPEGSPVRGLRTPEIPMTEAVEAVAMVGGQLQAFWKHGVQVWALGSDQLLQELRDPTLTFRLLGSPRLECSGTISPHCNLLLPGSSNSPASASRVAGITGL
Protocol: as §1

[10] = target: SYK (Homo sapiens, UniProt P43405); settings: 100 nM, 2 hours
Protocol: as §1

[11] = target: FGR (Homo sapiens, UniProt P09769); settings: MOLM-13; 100 nM, 2 hours; Activation Loop; read-out: Inhibition vs DMSO
Protocol: as §1

[12] = target: T2, RSK1 domain2 (Homo sapiens, UniProt Q15418); settings: MOLM-13; 100 nM, 2 hours; Lys2; read-out: Inhibition vs DMSO
T2 construct: RSK1 domain2
Protocol: as §1

[13] = target: IRAK1 (Homo sapiens, UniProt P51617); settings: MOLM-13; 100 nM, 2 hours; Lys2; read-out: Inhibition vs DMSO
Protocol: as §1

[14] = target: T3, JAK2 domain2 (Homo sapiens, UniProt O60674); settings: 100 nM, 2 hours; Activation Loop
T3 construct: JAK2 domain2
Protocol: as §1

[15] = target: T4, GCN2 domain2 (Homo sapiens, UniProt Q9P2K8); settings: MOLM-13, 2 h, 100 nM
T4 construct: GCN2 domain2
T4 sequence (Q9P2K8 whole entry, the tested form may be a part): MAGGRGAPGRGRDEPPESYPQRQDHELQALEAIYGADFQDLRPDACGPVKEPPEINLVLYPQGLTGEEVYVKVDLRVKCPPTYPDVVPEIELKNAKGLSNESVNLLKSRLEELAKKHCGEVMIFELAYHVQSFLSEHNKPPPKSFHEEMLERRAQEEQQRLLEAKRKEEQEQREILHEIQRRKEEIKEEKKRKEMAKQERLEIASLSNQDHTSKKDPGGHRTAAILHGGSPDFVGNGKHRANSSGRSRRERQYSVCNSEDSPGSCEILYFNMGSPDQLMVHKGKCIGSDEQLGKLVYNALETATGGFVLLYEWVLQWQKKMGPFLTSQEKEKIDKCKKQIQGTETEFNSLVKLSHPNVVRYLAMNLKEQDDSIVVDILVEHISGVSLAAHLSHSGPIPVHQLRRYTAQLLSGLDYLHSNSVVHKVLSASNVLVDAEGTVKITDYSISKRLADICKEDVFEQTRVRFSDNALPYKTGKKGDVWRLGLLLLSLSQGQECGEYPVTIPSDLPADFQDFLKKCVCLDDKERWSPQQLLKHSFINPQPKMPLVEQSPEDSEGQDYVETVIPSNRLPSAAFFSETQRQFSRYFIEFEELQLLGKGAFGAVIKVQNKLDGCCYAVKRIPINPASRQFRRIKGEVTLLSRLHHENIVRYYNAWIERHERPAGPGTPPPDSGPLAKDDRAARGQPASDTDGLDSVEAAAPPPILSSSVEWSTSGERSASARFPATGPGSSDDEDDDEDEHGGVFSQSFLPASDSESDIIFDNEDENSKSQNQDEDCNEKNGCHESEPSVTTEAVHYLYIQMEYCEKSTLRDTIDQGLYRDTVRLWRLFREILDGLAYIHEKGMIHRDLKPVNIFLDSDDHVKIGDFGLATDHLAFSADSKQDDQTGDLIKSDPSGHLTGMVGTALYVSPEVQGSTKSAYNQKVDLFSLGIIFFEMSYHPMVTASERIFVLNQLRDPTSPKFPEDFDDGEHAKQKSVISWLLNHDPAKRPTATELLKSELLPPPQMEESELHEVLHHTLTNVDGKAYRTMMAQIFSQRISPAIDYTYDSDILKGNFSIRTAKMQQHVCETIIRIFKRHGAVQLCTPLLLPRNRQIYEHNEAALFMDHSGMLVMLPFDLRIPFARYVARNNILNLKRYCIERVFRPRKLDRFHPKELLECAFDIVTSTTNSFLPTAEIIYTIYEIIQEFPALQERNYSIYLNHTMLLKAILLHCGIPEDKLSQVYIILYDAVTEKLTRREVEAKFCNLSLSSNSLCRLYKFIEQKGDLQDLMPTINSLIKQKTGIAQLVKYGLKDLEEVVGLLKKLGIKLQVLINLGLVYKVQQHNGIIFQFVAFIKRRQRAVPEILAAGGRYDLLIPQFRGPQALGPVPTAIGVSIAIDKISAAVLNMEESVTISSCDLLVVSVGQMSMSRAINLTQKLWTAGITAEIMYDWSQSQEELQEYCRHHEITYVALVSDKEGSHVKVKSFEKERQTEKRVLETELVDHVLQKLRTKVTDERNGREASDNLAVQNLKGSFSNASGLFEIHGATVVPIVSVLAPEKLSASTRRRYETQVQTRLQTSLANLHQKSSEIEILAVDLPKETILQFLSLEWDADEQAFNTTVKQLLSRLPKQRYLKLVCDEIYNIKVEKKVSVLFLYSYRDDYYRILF
Protocol: as §1

[16] = Lys1, read-out: Inhibition vs DMSO
[17] = Lys2, read-out: Inhibition vs DMSO

CDK5, sequence (Q00535 whole entry): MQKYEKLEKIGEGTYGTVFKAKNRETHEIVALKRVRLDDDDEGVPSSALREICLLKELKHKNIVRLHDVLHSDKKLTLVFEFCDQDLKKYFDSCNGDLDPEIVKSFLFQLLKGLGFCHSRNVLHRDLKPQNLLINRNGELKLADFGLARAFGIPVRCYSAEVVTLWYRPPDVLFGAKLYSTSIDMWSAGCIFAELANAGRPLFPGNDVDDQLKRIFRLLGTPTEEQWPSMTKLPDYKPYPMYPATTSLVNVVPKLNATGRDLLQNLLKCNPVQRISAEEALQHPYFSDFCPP

CN1CCN(Cc2ccc(Nc3ncc(Cl)c(Nc4ccccc4S(=O)(=O)N(C)C)n3)cc2)CC1 [TP-0903]
inhibition at 0.1 µM [1]: -2.8% | inhibition at 0.1 µM [2, 16]: 31.9% | inhibition at 0.1 µM [2, 17]: 20.7% | inhibition at 0.1 µM [3]: 29.8% | inhibition at 0.1 µM [4]: -4.6% | inhibition at 0.1 µM [5]: 55.7% | inhibition at 0.1 µM [6, 16]: 10.1% | inhibition at 0.1 µM [6, 17]: -12.6% | inhibition at 0.1 µM [7]: -0.6% | inhibition at 0.1 µM ([8]; LLSVIVKCGDDLRQELLAFQVLK): -5.9% | inhibition at 0.1 µM ([8]; VPHTQAVVLNSKDK): -12.3% | inhibition at 0.1 µM [9, 16]: 58.7% | inhibition at 0.1 µM [9, 17]: 55.7% | Inhibition vs DMSO ([10]; Activation Loop, AQTHGKWPVK): 27.9% | Inhibition vs DMSO ([10]; Activation Loop, ISDFGLSKALR): 17.6% | Inhibition vs DMSO ([10]; Lys1): 8.1% | inhibition at 0.1 µM [11]: -35.3% | inhibition at 0.1 µM [12]: -19.8% | inhibition at 0.1 µM [13]: 43.3% | Inhibition vs DMSO [14]: -68.6% | inhibition at 0.1 µM [15, 16]: -22.2% | inhibition at 0.1 µM [15, 17]: -33.5%

From publication PMC7714403 (JCI Insight, 2020)
